Measurements from patent publication EP3319638B1, “CINEOL-CONTAINING COMPOSITION FOR THE TREATMENT OF TUMOURS AND/OR CANCERS” (Maria Clementine Martin Klosterfrau Vertriebsgesellschaft …, priority 2015, dated 2017).
“Also recorded” adds a separate entry of the source.

Tests used:
[1] = system: HNSCC-Zellen; assay: MTT test: proliferation and viability of HNSCC cells, 288 h incubation; format: cell-based, human; conditions: 700 µM, MTT (Fig. 5)
From the text: (§1) Die Zellproliferation wird mittels eines quantitativen kolorimetrischen 3-(4,5-Dimethylthiazol-2-yl)-2,5-diphenyltetrazoliumbromid-basierten (MTT) Zelltests bestimmt. Dieser Test bestimmt die Anzahl der lebensfähigen Zellen auf Basis der mitochondrialen Konversion von MTT.
(§2) Dazu werden 5.000 Zellen in jedes Well einer 96-Well-Platte verteilt. Nach 24 Stunden Kultivierung werden vier verschiedene Konzentrationen von 5-Fluoruracil oder Cisplatin zu den Kulturen hinzugefügt oder die Zellen werden mit drei Dosen bestrahlt. Nach 48 Stunden werden in jedes Well 10 µl MTT-Farbstoff (5 mg/ml) zugefügt. Nach zwei Stunden Inkubation mit MTT wurden die Kristalle gelöst und vorsichtig für 24 Stunden bei Raumtemperatur geschüttelt. Mithilfe eines Multi-Well-ELISA-Lesegeräts wird die Absorption der reduzierten Formazan-Produkte in Kontrolle und Proben-Wells bei einer Welle von 570 nm und 690 nm bestimmt. Alle Wachstumsproben des MTT-Tests werden in dreifacher Ausführung ausgeführt.
Dosisabhängige Inhibition der Proliferation von HNSCC durch 1,8-Cineol Um zu bestimmen, ob die Behandlung mit 1,8-Cineol zu einer Inhibition der zellulären Lebensfähigkeit von HNSCC führt, werden MTT-Tests durchgeführt. Zu diesem Zweck werden die Zellen für 288 Stunden in 300 µM bzw. 700 µM Cineol inkubiert.

[2] = system: HNSCC-Zelllinien; assay: MTT assay: vitality and proliferation of HNSCC cell lines, 250 h culture; format: cell-based, human
From the text: as §1, §2
(§3) Es werden weiterführende Untersuchungen durchgeführt zur Analyse des Einflusses von Cineol auf die Vitalität und Proliferation verschiedener permanenter Zelllinien. Hierzu werden einerseits die zwei HNSCC-Zelllinien und des Weiteren eine Fibroblastenzelllinie verwendet. Diese werden über einen Zeitraum von 250 Stunden mit verschiedenen Cineol-Konzentrationen kultiviert (1 mM bis 10 mM) und die Vitalität der Zellen wird jeweils mittels eines MTT-Assays untersucht.

[3] = system: phosphoryliertem GSK-3α/β (Serin-9/-21); assay: Western blot: phosphorylation level of GSK-3α/β at Ser-9/-21 in HNSCC cell lines; format: cell-based, human; conditions: 100 µM, HNSCC cell lines (Fig. 1B)
Procedure: (§4) Die im Rahmen der vorliegenden Erfindung untersuchten adhärenten humanen Kopf-Hals-Plattenepithel-Karzinom-Zelllinien (UT-SCC16A, UT-SCC-16B, UT-SCC-60A und UT-SCC-60B) werden in "Dulbecco's Modifiziertem Eagle's Medium" (DMEM, 4,5 g/l D-Glucose und L-Glutamin), welches mit 10 % fötalem Rinderserum (FBS) (beide Life Technologies, Carlsbad, CA, USA), 1 % Natriumpyruvat (PAN-Biotech, Aidenbach, Deutschland) und 1 % Antibiotika (10.000 U/ml Penicillin, 10.000 µg/ml Streptomycin) (Biochrom, Berlin, Deutschland) supplementiert ist, bei 37 °C unter 5 % CO2 und 95 % LuftAtmosphäre gelagert.
(§5) Anti-Phospho-GSK-3α/β-Antikörper (Serin-21/-9) (#9331) und Anti-GAPDH-Antikörper (#2118) werden über Cell Signaling Technology (Danvers, MA, USA) bezogen. Beide Antikörper werden in einer […]-Verdünnung in TBS mit 3 % BSA (PAA Laboraties, Pasching, Österreich) verwendet. Anti-Phospho-GSK-3a/β-Antikörper (Y279/Y216) (#ab6847) werden von Abcam (Cambridge, UK) erhalten und in einer 1 : 1.000-Verdünnung in TBS mit 3 % BSA verwendet. Der gegen aktives-β-Catenin gerichtete Antikörper (#05-665) wird über Merck Milipore (Billerica, MA, USA) bezogen und in einer Verdünnung von 1 : 2.000 in TBS und 3 % Milchpulver (Carl Roth, Karlsruhe, Deutschland) verwendet. […]

[4] = system: Wnt11; assay: Western blot: Wnt11 protein expression in HNSCC cell lines; format: cell-based, human
Procedure: (§6) Die Zellen werden zweimal in eiskaltem PBS gewaschen und anschließend in RIPA-Puffer (Cell Signaling Technology, Danvers, MA, USA) mit Aprotinin, Pepstatin A, Protease Inhibitor Cocktail und Phenylmethansulfonylfluorid (Sigma-Aldrich, St. Louis, MO, USA) für 1,5 Stunden lysiert. Durch Zentrifugation (13.000 rpm, 4 °C, 10 Minuten) werden Zelltrümmer entfernt. Die Proteinkonzentration wird mittels des Bradford-Tests mit einfach konzentriertem Quick StartTM Dye Reagent (Bio-Rad Laboratories, Hercules, CA, USA) bestimmt. Es wird vierfach konzentrierter SDS-Probenpuffer hinzugefügt, und die Proben werden für 5 Minuten bei 95 °C denaturiert. Äquivalente Proteinmengen (30 µg) werden mittels SDS-PAGE in einem 10 % Polyacrylamidgel aufgetrennt und mittels Immunoblot auf Nitrocellulosemembranen übertragen. Für die Proteinextraktion aus Geweben werden die Gewebe zunächst in 500 µl RIPA-Puffer mit Protease-Inhibitoren unter Einsatz des TissueLyser LT (Qiagen, Hilden, Deutschland) homogenisiert, anschließend inkubiert und wie zuvor beschrieben zentrifugiert.
Die Membranen werden mit TBS, enthaltend 3 % BSA oder 3 % Milchpulver, für 1 Stunde bei Raumtemperatur geblockt und anschließend mit dem primären Antikörper über Nacht bei 4 °C inkubiert. Nach einem Waschschritt mit TBS werden die Membranen mit dem speziesspezifischen sekundären Antikörper für 1 Stunde bei Raumtemperatur inkubiert. Die Proteinbanden werden unter Einsatz von Amersham™ ECL™ Primer Western Blotting Detection Reagent (GE Healthcare, Chalfont St Giles, Buckinghamshire, UK) und Fusion-FX7 sowie der korrespondierenden Software Fusion Bio-1D V12.14 (Vilber-Lourmat, Eberhardzell, Deutschland) nach ausgiebigem Waschen visualisiert. Die Nitrozellulosemembranen werden über Nacht bei 4 °C mit einem GAPDH-Antikörper inkubiert, um die Beladung jeder Spur zu bestimmen. Die Membranen werden nochmals gewaschen und mit dem sekundären Antikörper und ECL Detektionsreagenz inkubiert. […]

[5] = system: GSK-3α/β (Tyrosin-279/-216); assay: Western blot: phospho-GSK-3α/β at Tyr-279/-216 in HNSCC cell lines; format: cell-based, human; conditions: 100 µM, HNSCC cell lines (Fig. 1C)
Procedure: as §4, §5

[6] = system: aktivem β-Catenin; assay: Western blot of whole-cell protein: expression level of active β-catenin in HNSCC cell lines; format: cell-based, human; conditions: 24 h incubation, 100 µM, versus medium control (Fig. 1A)
Procedure: as §4, §5

[7] = system: Wnt11; assay: RT2 EMT Profiler PCR array: Wnt11 mRNA level in HNSCC cell lines; format: cell-based, human; conditions: 100 µM, HNSCC cell lines (Fig. 4A)
From the text: PCR-Test zur humanen epithelial-mesenchymalen Transition (EMT) Mit dem "Human Epithelial to Mesenchymal Transition (EMT) RT^2 Profiler™ PCR Array" wird die Expression von 84 Schlüsselgenen, welche ihre Expression während dieses Prozesses verändern oder die Expression von sich verändernden Genen regulieren, festgestellt. Der Test umfasst für Zelloberflächenrezeptoren, extrazelluläre Matrix und das Zytoskelett kodierende Gene, Gene, welche Zelladhäsion, Migration, Motilität und Morphogenese steuern; sowie Gene für Signaltransduktion und Transkriptionsfaktoren, welche die EMT sowie die damit assoziierten Prozesse bedingen.
Weiterhin werden im Hinblick auf die Wnt/β-Catenin-Signalgebung aufgrund ihrer Involvierung in die Regulation der epithelial-mesenchymalen Transition (EMT) die transkriptionellen Profile verschiedener Gene, welche in Zusammenhang mit EMT stehen, in Reaktion auf 1,8-Cineol untersucht. Dafür wird der PCR-basierte "RT^2 EMT Profiler" eingesetzt, welcher die umfassende Analyse von 84 verschiedenen, in Zusammenhang mit EMT stehenden Genen erlaubt.

[8] = system: Akt; assay: Western blot: Akt expression in HNSCC cell lines; format: cell-based, human; conditions: 100 µM, HNSCC cell lines (Fig. 3)
Procedure: as §4
as §6, with “Für die Proteinextraktion aus Geweben werden die Gewebe zunächst in 500 µl RIPA-Puffer mit Protease-Inhibitoren unter Einsatz des TissueLyser LT (Qiagen, Hilden, Deutschland) homogenisiert, anschließend inkubiert und wie zuvor beschrieben zentrifugiert.” left out

[9] = system: Fibroblastenzelllinie; assay: MTT assay: vitality and proliferation of a fibroblast cell line, 250 h culture; format: cell-based
From the text: as §1, §2, §3

[10] = system: P-Akt (Threonin-308); assay: Western blot: Akt phosphorylation at Thr-308 in HNSCC cell lines; format: cell-based, human; conditions: 100 µM, HNSCC cell lines (Fig. 3)
Procedure: as §4
as §6, with “Für die Proteinextraktion aus Geweben werden die Gewebe zunächst in 500 µl RIPA-Puffer mit Protease-Inhibitoren unter Einsatz des TissueLyser LT (Qiagen, Hilden, Deutschland) homogenisiert, anschließend inkubiert und wie zuvor beschrieben zentrifugiert.” left out

[11] = system: Phospho-GSK-3 (Serin-9/-21); assay: Immunohistochemistry: subcellular (endolysosomal) localisation of phospho-GSK-3; format: cell-based, human; conditions: 100 µM, versus control medium (Fig. 2)
Procedure: Zur Detektion von […] innerhalb der Tumorzellen wird eine immunohistochemische Methode eingesetzt. Die Zellen werden 24 Stunden vor der Behandlung mit 100 µM Cineol in 4-Well-Kammerobjektträgern (Sarstadt AG, Numbrecht, Deutschland) überführt. Nach der Inkubation wurde das Medium entfernt und die Zellen wurden zweimal in PBS gewaschen. Zur intrazellulären Färbung wurden die Zellen mit 0,1 % Triton-X-100 (Sigma-Aldrich Chemie GmbH, Steinheim) in PBS fixiert. Der spezifische primäre Antikörper Anti-Phospho-GSK-3α/β (Serin-21/-9) (#9331) (Cell Signaling, Danvers, MA, USA) wird mit einem Antikörper-Verdünnungspuffer, welcher Blocking-Puffer (DCS LabLine, DCS, Hamburg, Deutschland) enthält, auf 1 : 50 verdünnt und in einer luftbefeuchteten Kammer für 1 Stunde bei Raumtemperatur (RT) inkubiert. Nach Waschen mit PBS wird der zweite Antikörper Ziege-anti-Maus FITC (Jackson ImmunoResearch Laboratories, West Grove, USA) in einer Verdünnung von 1 : 100 für 45 Minuten inkubiert. Die Zellen werden dreimal mit PBS gespült. Die Zellkerne werden für 1 Minute unter Einsatz von DAPI (1 µg/ml, Roche Diagnostics, Mannheim, Deutschland) gefärbt. Die Proben werden dreimal für 5 Minuten mit PBS gespült und anschließend in Fluoromount G (Southern Biotechnologies Associates, Birmingham, Alabama, USA) eingebettet. […]

[12] = from a concentration of 1mM to 2mM

## CC12CCC(CC1)C(C)(C)O2 [1,8-Cineol, 1,3,3-Trimethyl-2-oxabicyclo[2.2.2]octan]
[1]
  Proliferation und zelluläre Lebensfähigkeit von HNSCC-Zellen: stark verringerte zelluläre Lebensfähigkeit
[1]; listed as Cineol
  Proliferation und zelluläre Lebensfähigkeit von HNSCC-Zellen: starker Rückgang der Proliferation und zellulären Lebensfähigkeit
[2]; 1 mM to 10 mM
  Einfluss auf die Progression und Vitalität von HNSCC: inhibierender Einfluss
[2]; 10mM
  zytotoxische Wirkung: deutlich zytotoxische Wirkung
[2]; [12]
  proliferationshemmende Wirkung: starke proliferationshemmende Wirkung
[3]
  Level von bzw. Gehalt an phosphoryliertem GSK-3α/β (Serin-9/-21): verringerten Level von bzw. Gehalt an phosphoryliertem GSK-3α/β (Serin-9/-21)
[4]; cell lines 16A, SCC154, 60B and Carey24, 24 h, 1mM
  Proteinexpression von Wnt11: starke Herunterregulation von Wnt11
[4]; cell lines 16B and 60A, 24 h, 1mM
  Wnt11 Proteinexpression: Rückgang der Wnt11 Proteinexpression, auch wenn dieser geringer ist
[4]; dose dependence, six HNSCC cell lines (Fig. 4B)
  Proteinexpression von Wnt11: dosisabhängig in Reaktion auf 1,8-Cineol abnimmt
[5]
  Expressionslevel von GSK-3α/β (Tyrosin-279/-216): nicht nennenswert beeinflusst
[6]
  Expressionslevel von aktivem β-Catenin: starke Abnahme von aktivem β-Catenin
[7]
  mRNA-Level von Wnt11: starken Rückgang der mRNA-Level von Wnt11
[8]
  Expression von Akt: Weder die Expression noch die Phosphorylierung von Threonin-308 von Akt wird in den analysierten Zelllinien nennenswert beeinflusst
[9]; 1 mM to 10 mM
  Einfluss auf die Progression und Vitalität von Fibroblasten: inhibierender Einfluss
[9]; 10mM
  zytotoxische Wirkung: deutlich zytotoxische Wirkung
[9]; [12]
  proliferationshemmende Wirkung: starke proliferationshemmende Wirkung
[10]
  Phosphorylierung von Threonin-308 von Akt: Weder die Expression noch die Phosphorylierung von Threonin-308 von Akt wird in den analysierten Zelllinien nennenswert beeinflusst
[11]
  endolysosomale Lokalisation von GSK-3: Rückgang der endolysosomalen Lokalisation von Phospho-GSK-3 (Serin-9/-21); also recorded: verringerte endolysosomale Lokalisation von GSK-3
